Some test systems named below: 786-0 renal; A549 NSCLC; CCRF-CEM leukemia; HCT-15 colon; LOX IMVI melanoma; M14 melanoma; NCI-H23 lung; OVCAR-3 ovarian; OVCAR-5 ovarian; RXF 393 renal; SK-MEL-5 melanoma; SK-OV-3 ovarian; SR leukemia; UACC-257 melanoma; MDA-MB-231 breast; NCI-H522 lung; MCF7 breast; PC-3 prostate; BT-549 breast.
Common to all, as to test: growth of human tumour cells (NCI), 48 h

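Step 1: Grow cells in 96-well plates. Step 2: Expose to compound for 48 hours at 5 concentrations. Step 3: Interpolate endpoints linearly; if unreached, use highest concentration. TGI marks complete inhibition of growth.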

As for `c1ccc(C2OCCO2)c(OCCOc2cc(OCCOc3ccccc3C3OCCO3)c(OCCOc3ccccc3C3OCCO3)cc2OCCOc2ccccc2C2OCCO2)c1`, the TGI with 786-0 renal was 17.3 µM; in the experiment with A549 NSCLC, over 100 µM; in the experiment with CCRF-CEM leukemia, over 100 µM; with HCT-15 colon, over 100 µM; in the experiment on LOX IMVI melanoma, over 100 µM; in the experiment with M14 melanoma, over 100 µM. The TGI in the experiment on NCI-H23 lung is 27.3 µM; in the experiment with OVCAR-3 ovarian, 46.8 µM; in the experiment on OVCAR-5 ovarian it was over 100 µM; in the experiment on RXF 393 renal, 18.2 µM; with SK-MEL-5 melanoma, over 100 µM; in the experiment with SK-OV-3 ovarian, 13.7 µM. Moreover, the TGI with SR leukemia and in the experiment with UACC-257 melanoma was over 100 µM throughout.

For the molecule `CC(C)CCc1n[nH]c(=O)n1/N=C\c1ccccc1`, the TGI in the experiment with 786-0 renal, in the experiment with A549 NSCLC, in the experiment on CCRF-CEM leukemia, in the experiment with HCT-15 colon, in the experiment with LOX IMVI melanoma and in the experiment with M14 melanoma was over 100 µM each time. The TGI with MDA-MB-231 breast, with NCI-H23 lung, with NCI-H522 lung, in the experiment with OVCAR-3 ovarian, with OVCAR-5 ovarian and in the experiment with RXF 393 renal was over 100 µM each time. Moreover, the TGI with SK-MEL-5 melanoma, in the experiment on SK-OV-3 ovarian and in the experiment on UACC-257 melanoma was over 100 µM throughout.

Turning to `C/C(CC1SCCCS1)=C(/C)CC1SCCCS1`, the TGI in the experiment with 786-0 renal, in the experiment on A549 NSCLC, in the experiment with CCRF-CEM leukemia, with HCT-15 colon, in the experiment on LOX IMVI melanoma and in the experiment with M14 melanoma was over 100 µM each time. Further, the TGI in the experiment with MCF7 breast, with MDA-MB-231 breast, in the experiment on NCI-H23 lung, in the experiment on OVCAR-3 ovarian, in the experiment on OVCAR-5 ovarian and in the experiment on PC-3 prostate was over 100 µM each time. The TGI in the experiment on RXF 393 renal, in the experiment with SK-MEL-5 melanoma and in the experiment with SR leukemia was over 100 µM each time.

As to `Cn1cnc(N2CCCC2)c(C#N)c1=O`, the TGI with 786-0 renal, with A549 NSCLC, in the experiment on CCRF-CEM leukemia, in the experiment with HCT-15 colon, in the experiment on LOX IMVI melanoma and with M14 melanoma was over 100 µM throughout. For the same molecule, the TGI with MCF7 breast, in the experiment with MDA-MB-231 breast, in the experiment on NCI-H23 lung, in the experiment with NCI-H522 lung, with OVCAR-3 ovarian and in the experiment on OVCAR-5 ovarian was over 100 µM throughout. In addition, the TGI in the experiment on PC-3 prostate, in the experiment with RXF 393 renal, in the experiment on SK-MEL-5 melanoma, in the experiment with SR leukemia and in the experiment with UACC-257 melanoma was over 100 µM throughout.

In the case of `O=C(/C=C/c1ccc(Cl)cc1)c1cccs1`, the TGI stood at 30 µM in the experiment with 786-0 renal; 83.5 µM with A549 NSCLC; 98.1 µM in the experiment with CCRF-CEM leukemia; 49.9 µM with HCT-15 colon; 24.3 µM in the experiment with LOX IMVI melanoma; 36.3 µM in the experiment with M14 melanoma. Besides, the TGI with MCF7 breast worked out at 15.8 µM; in the experiment on MDA-MB-231 breast, 39.9 µM; in the experiment with PC-3 prostate, 32.8 µM; with SK-MEL-5 melanoma, 32.5 µM; in the experiment with SK-OV-3 ovarian, 77 µM; in the experiment with SR leukemia it was 50.5 µM. In the experiment with UACC-257 melanoma, this molecule displayed a TGI of 37.4 µM.

As to `Cc1ccc2c(C)c3ccc4ccccc4c3c[n+]2c1`, the TGI in the experiment with 786-0 renal is 80.3 µM; with A549 NSCLC, over 100 µM; with CCRF-CEM leukemia, 46.4 µM; in the experiment with HCT-15 colon it was over 100 µM; in the experiment on LOX IMVI melanoma, 99.8 µM; in the experiment on M14 melanoma, 33.9 µM. The TGI was 38.6 µM with NCI-H23 lung; 28.3 µM in the experiment with NCI-H522 lung; 38.1 µM in the experiment with OVCAR-3 ovarian; over 100 µM in the experiment with OVCAR-5 ovarian; 67.4 µM with RXF 393 renal; 25.4 µM with SK-MEL-5 melanoma. The results for the TGI in the experiment on SK-OV-3 ovarian, with SR leukemia and in the experiment with UACC-257 melanoma were over 87.2 µM, 42.8 µM and 33.7 µM, respectively.

For the molecule `Cc1ccc(-c2c(C#N)c(N)nc3c2CCS(=O)(=O)c2ccccc2-3)cc1`, the TGI in the experiment on 786-0 renal, in the experiment with A549 NSCLC, in the experiment with BT-549 breast, with HCT-15 colon, in the experiment on LOX IMVI melanoma and in the experiment on MDA-MB-231 breast was over 100 µM in each case. In addition, the TGI in the experiment with NCI-H23 lung, in the experiment on NCI-H522 lung, in the experiment on PC-3 prostate, with SK-MEL-5 melanoma and with UACC-257 melanoma was over 100 µM throughout.

In the case of `O=c1c2cn[nH]c2nc2scc(-c3ccc(Cl)cc3)n12`, the TGI in the experiment with 786-0 renal, in the experiment on A549 NSCLC, in the experiment with CCRF-CEM leukemia, in the experiment with HCT-15 colon, in the experiment on LOX IMVI melanoma and with M14 melanoma was over 100 µM each time. The TGI in the experiment with MCF7 breast, with MDA-MB-231 breast, in the experiment on NCI-H23 lung, in the experiment with NCI-H522 lung, in the experiment on OVCAR-3 ovarian and in the experiment on OVCAR-5 ovarian was over 100 µM in each case. Also, the TGI in the experiment with PC-3 prostate, with RXF 393 renal, in the experiment with SK-MEL-5 melanoma, in the experiment with SK-OV-3 ovarian, with SR leukemia and in the experiment with UACC-257 melanoma was over 100 µM in each case.

In the case of `Cc1ccc(S(=O)(=O)n2c3c(c4ccccc42)CCN2CCC(Br)C[C@@H]32)cc1` (some centres undefined), the TGI in the experiment on 786-0 renal is 30.2 µM; in the experiment on A549 NSCLC, 31.4 µM; in the experiment with CCRF-CEM leukemia, 35.2 µM; with HCT-15 colon it was 24.4 µM; in the experiment with LOX IMVI melanoma, 27.6 µM; with M14 melanoma, 25.9 µM. For the same molecule, the TGI was determined as 22.8 µM in the experiment on MCF7 breast; 31.3 µM in the experiment on MDA-MB-231 breast; 26.6 µM in the experiment on NCI-H23 lung; 18.6 µM in the experiment on NCI-H522 lung; 23.6 µM in the experiment on OVCAR-3 ovarian; 31.9 µM in the experiment with OVCAR-5 ovarian. The TGI is 26.3 µM in the experiment on PC-3 prostate; 26.1 µM in the experiment on RXF 393 renal; 20.2 µM in the experiment on SK-MEL-5 melanoma; 31.9 µM in the experiment on SK-OV-3 ovarian; 19.2 µM with SR leukemia; 21.1 µM in the experiment on UACC-257 melanoma.

On to `C[n+]1cccc2ccc(OC(=O)c3ccccc3)cc21`, for which the TGI in the experiment on 786-0 renal, with A549 NSCLC, with HCT-15 colon, in the experiment on LOX IMVI melanoma, with M14 melanoma and with MCF7 breast was over 100 µM each time. The TGI in the experiment with NCI-H23 lung, in the experiment with NCI-H522 lung, in the experiment with OVCAR-3 ovarian, in the experiment with OVCAR-5 ovarian, in the experiment on RXF 393 renal and with SK-MEL-5 melanoma was over 100 µM throughout. Moreover, the TGI with SK-OV-3 ovarian and with UACC-257 melanoma was over 100 µM each time.

`O=C1C(=Nc2ccccc2)Oc2cc(O)ccc21`: the TGI in the experiment with 786-0 renal, in the experiment on A549 NSCLC, in the experiment on CCRF-CEM leukemia, in the experiment with HCT-15 colon, in the experiment on LOX IMVI melanoma and in the experiment with M14 melanoma was over 100 µM each time. Besides, the TGI with MCF7 breast, in the experiment on MDA-MB-231 breast, in the experiment on NCI-H23 lung, in the experiment on NCI-H522 lung, with OVCAR-3 ovarian and in the experiment with OVCAR-5 ovarian was over 100 µM throughout. Besides, the TGI in the experiment with PC-3 prostate, in the experiment on RXF 393 renal, in the experiment on SK-MEL-5 melanoma, in the experiment with SK-OV-3 ovarian, in the experiment on SR leukemia and in the experiment on UACC-257 melanoma was over 100 µM each time.

In the case of `CC(=O)N(CN1C(=O)CCC1C(=O)O)c1cccc(O)c1` (centres undefined), the TGI in the experiment on 786-0 renal, in the experiment on A549 NSCLC, in the experiment on CCRF-CEM leukemia, with HCT-15 colon, in the experiment with LOX IMVI melanoma and with M14 melanoma was over 100 µM each time. In addition, the TGI in the experiment on MCF7 breast, with MDA-MB-231 breast, in the experiment with NCI-H23 lung, in the experiment with NCI-H522 lung, with OVCAR-3 ovarian and in the experiment with OVCAR-5 ovarian was over 100 µM throughout. In addition, the TGI with PC-3 prostate, in the experiment on SK-MEL-5 melanoma, in the experiment on SK-OV-3 ovarian and with UACC-257 melanoma was over 100 µM throughout.

Consider `CCN(CC)C(=S)N=Nc1c(O)[nH]c2ccccc12`, for which the TGI with 786-0 renal was 11.4 µM; with A549 NSCLC it was 11.9 µM; in the experiment on CCRF-CEM leukemia, 5.75 µM; in the experiment with HCT-15 colon, 19.6 µM; with LOX IMVI melanoma, 13.4 µM; with M14 melanoma, 2.94 µM. Besides, the TGI with MCF7 breast amounted to 2.37 µM; in the experiment on MDA-MB-231 breast, 8.02 µM; in the experiment on NCI-H23 lung, 14.6 µM; in the experiment on NCI-H522 lung, 14.4 µM; in the experiment on OVCAR-3 ovarian it was 2.12 µM; in the experiment on OVCAR-5 ovarian it was 25.1 µM. Also, the TGI in the experiment with PC-3 prostate is 13.9 µM; with RXF 393 renal, 7.15 µM; with SK-MEL-5 melanoma, 2.41 µM; in the experiment with SK-OV-3 ovarian, 12.6 µM; in the experiment on SR leukemia it was 4.91 µM; in the experiment on UACC-257 melanoma, 12.3 µM.

As to `COc1ccc(-c2cc(=O)c3cc4c(cc3[nH]2)OCO4)cc1`, the TGI in the experiment on 786-0 renal, in the experiment on A549 NSCLC, in the experiment with CCRF-CEM leukemia, in the experiment on HCT-15 colon, in the experiment with LOX IMVI melanoma and in the experiment on M14 melanoma was over 100 µM each time. For the same molecule, the TGI in the experiment on NCI-H23 lung, in the experiment with OVCAR-3 ovarian, with RXF 393 renal, in the experiment on SK-MEL-5 melanoma, in the experiment with SR leukemia and in the experiment with UACC-257 melanoma was over 100 µM each time.

Values taken from PubChem BioAssay (NCI).
